Experimental data published in patent publication US4758577A, “4-(5H-dibenzo[a,d]cyclohepten-5-yl)piperidine compounds for treating cardiovascular disorders” (Merck & Co., Inc., priority 1984, dated 1988).

Each compound was assayed on vascular smooth muscle (assay: inhibition of calcium induced contraction of tracheal smooth muscle or vascular tissue (segments of vascular smooth muscle in a tissue bath, depolarized, 0.1 mM calcium chloride re-added)). Conditions: Rattus norvegicus; 10^-7 M; second contraction vs initial contraction.
Type: cell-based, male Sprague-Dawley rats
Description: The property may be observed in a test in which segments of vascular smooth muscle obtained from male Sprague-Dawley rats are suspended in physiological salt solution in a tissue bath instrumented for recording contractions. After the tissue has been equilibrated, washed in calcium-free physiological salt solution and depolarized, 0.1 mM calcium chloride is re-added to induce contraction. After the contraction has reached a plateau, tissues are washed and a test compound or vehicle is added to determine the effect on a second contraction achieved by the above cyclic protocol. From measuring the initial contraction as well as the second contraction in the presence of the first compound, the extent of inhibition may be calculated.

| Structure (SMILES) | inhibition at 0.1 µM |
| --- | --- |
| COc1cc(C=CCN2CCC(C3c4ccccc4C=Cc4ccccc43)CC2)cc(OC)c1OC [4-(5H-Dibenzo[a,d]cyclohepten-5-yl)-1-(3-(3,4,5-trimethoxyphenyl)prop-2-en-1-yl)piperidine] | 68% |
| CN(C)c1ccc(CN2CCC(C3c4ccccc4C=Cc4ccccc43)CC2)cc1 [4-(5H-Dibenzo[a,d]cyclohepten-5-yl)-1-(4-dimethylaminobenzyl)piperidine] | 69% |
| C(=Cc1ccccc1)CN1CCC(C2c3ccccc3C=Cc3ccccc32)CC1 [4-(5H-Dibenzo[a,d]cyclohepten-5-yl)-1-cinnamylpiperidine] | 70% |
